Here are results for two compounds from patent US20260250636A1, “A METHOD FOR PRODUCING A BIOENGINEERED MAMMAL INDUCED PLURIPOTENT STEM CELL-DERIVED CARDIAC ORGANOID” (INSTITUT NATIONAL DE LA SANTÉ ET DE LA RECHERCHE MÉDICALE, priority 2022, published 2026).

What all share (format): cell-based, human
The subject of test [1] is c-met cardiac organoids. In words: OCR/ECAR and energy phenotype (Seahorse XFp) under cobalt chloride-mimicked hypoxia. The protocol: Cardiac organoids cultured for 3-4 months in 96 wells were transferred randomly to XFp mini plates (1-6 organoids/well, 300 to 1100 μm in diameter) (Seahorse, Agilent). The cardiac culture medium was treated with 200 μM CoCl2 (sigma) concentration for 24 hours. To evaluate the effects of HGF stimulation and c-met inhibition we have used respectively HGF at 50 ng/ml (R&D Systems) and SU11274 at […] (Sigma) under hypoxia. OCR, ECAR and energy phenotype test were all measured using a Seahorse XFp analyzer (Seahorse, Agilent). On the day of testing, cells were incubated in XF assay medium for 1 hr at 37° C. in non-CO2 incubator before measurement. Cell energy phenotype kit was used with port A containing the FCCP/oligomycin stressor mix at 2.0/1.0 μM (final well concentration). OCR and ECAR were normalized to the cell numbers of each wells. Cells were stained with DAPI and calculated from Leica confocal microscope images.

Test [2] concerns c-met cardiac organoids. In words: Cobalt chloride-mimicked hypoxia, proBNP and caspase-3 immunostaining. Conditions: 200 μM CoCl2 hypoxia 24 h, n=8, normalized by DAPI fluorescence intensity. The procedure:
(§1) Cardiac organoids cultured on 24 or 96-well culture plates were washed with phosphate-buffered saline (PBS), fixed with 4% paraformaldehyde in PBS for 60 min, permeabilized with 0.2% Triton X-100 (Sigma) in PBS and blocked 10% serum. Primary antibodies were diluted in PBS 10% serum at the following concentrations: phospho-Met; 1:100 (Cell Signaling Technologies), phospho-STAT3; 1:200 (Cell Signaling Technologies), Sarcomeric Alpha Actinin; 1:200 (Abcam), MLC-2A; 1:100 (Synaptic Systems), MLC-2V; 1:100 (Synaptic Systems), Cardiac troponin T; 1:100 (Abcam), CD31; 1:100 (Abcam), Caspase-3; 1:100 (Cell Signaling Technologies), ProBNP; 1:100 (Abcam), and then washed three times in PBS. The samples were incubated with secondary antibodies in antibody dilution buffer, then washed in PBS. Nuclei were labeled with DAPI mounting medium. The negative control performed a secondary antibody only (data not shown). Visualization and capture were realized with a Leica confocal microscope and LAS AF software.
(§2) Cardiac organoids cultured for 3-4 months in 96 wells were transferred randomly to XFp mini plates (1-6 organoids/well, 300 to 1100 μm in diameter) (Seahorse, Agilent). The cardiac culture medium was treated with 200 μM CoCl2 (sigma) concentration for 24 hours. To evaluate the effects of HGF stimulation and c-met inhibition we have used respectively HGF at 50 ng/ml (R&D Systems) and SU11274 at 5 M (Sigma) under hypoxia.

Test [3] relates to control cardiac organoids. Described as above. To be noted: 200 μM CoCl2 hypoxia 24 h, n=5, normalized by DAPI fluorescence intensity. The procedure:
as §1, §2

The test system of test [4] is control cardiac organoids. Kind of test: OCR/ECAR and energy phenotype (Seahorse XFp) under cobalt chloride-mimicked hypoxia. To be noted: after CoCl2 hypoxia 24 h; control group as compared to c-met group. The procedure: as §2
OCR, ECAR and energy phenotype test were all measured using a Seahorse XFp analyzer (Seahorse, Agilent). On the day of testing, cells were incubated in XF assay medium for 1 hr at 37° C. in non-CO2 incubator before measurement. Cell energy phenotype kit was used with port A containing the FCCP/oligomycin stressor mix at 2.0/1.0 μM (final well concentration). OCR and ECAR were normalized to the cell numbers of each wells. Cells were stained with DAPI and calculated from Leica confocal microscope images.

`Cc1[nH]c(/C=C2\C(=O)Nc3ccc(S(=O)(=O)N(C)c4cccc(Cl)c4)cc32)c(C)c1C(=O)N1CCN(C)CC1` [SU11274]: in the test on c-met cardiac organoids [1] (c-met organoids, CoCl2 + SU11274 24 h, compared with HGF-treated (50 ng/ml) control organoids), the “glycolysis activity at the baseline (ECAR)” value is recorded as “significantly decreased”.

Consider `[Cl][Co][Cl]` [cobalt, cobalt chloride], for which, in the test on c-met cardiac organoids [2], the “caspase-3+ cells intensity” value was found to be 0.34±0.16 and the “proBNP+ cells intensity” value is recorded as 0.73±1.4. In addition, in test [3], the “caspase-3+ cells intensity” value was found to be 0.61±0.11 and the “proBNP+ cells intensity” value stood at 0.78±0.16. Besides, the “glycolysis activity (ECAR)” value in test [4] is given as “decreased”. Further, the “energy phenotype (OCR versus ECAR)” value in the test with c-met cardiac organoids [1] (after CoCl2 hypoxia 24 h, c-met organoids versus control) is “more energetic than control”.
